Target: human PKR1 receptors (Homo sapiens (Human), UniProt Q8TCW9)
Test: PKR1 antagonist intracellular calcium (FLIPR) assay, block of PK1-mediated calcium release
Assay type: cell-based
Conditions: RBL2H3 cells expressing human PKR1; PK1 at EC80; minimum of two independent assays
Method: Prokineticin receptor 1 (PKR1) antagonists may be functionally assessed by measurement of change in intracellular calcium levels induced by Gq mediated increase in inositol triphosphate (IP3) levels. The ability of a compound to block the intracellular release of calcium mediated by PK1 in RBL2H3 cells expressing human PKR1 receptors is determined as a measure of the compound's antagonist activity in vitro.
Approximately 10,000 cells per assay well are seeded in normal culture medium in a 384 well plate (Corning). Twenty-four hours after seeding, the cells are loaded with a calcium sensitive fluorescent dye by replacing the culture medium with assay buffer (1× Hanks buffered saline, 25 mM HEPES, 0.1% w/v fatty acid free BSA (bovine serum albumin), pH 7.4) containing 1 mM probenecid and 1× Calcium 5 Reagent (Molecular Devices). Cells are incubated at 37° C. for 1 hour to allow for dye uptake.
To test for antagonist activity, test compounds at a final concentration range between 0.32 nM-10 μM (diluted in assay buffer) are added to duplicate assay wells and allowed to incubate for 10 minutes prior to stimulation with PK1. After incubation with test compounds the assay plate is placed in a FLIPR Tetra (Molecular Devices) and PK1 (diluted in assay buffer) is added at the determined EC80 concentration (final). Ligand-dependent changes in intracellular calcium levels are determined by measuring changes in fluorescence of the dye at […] following excitation at 485 nm. […] A minimum of two IC50 values determined from independent assays are generated for each compound.

Chain of human PKR1 receptors (Q8TCW9 whole entry): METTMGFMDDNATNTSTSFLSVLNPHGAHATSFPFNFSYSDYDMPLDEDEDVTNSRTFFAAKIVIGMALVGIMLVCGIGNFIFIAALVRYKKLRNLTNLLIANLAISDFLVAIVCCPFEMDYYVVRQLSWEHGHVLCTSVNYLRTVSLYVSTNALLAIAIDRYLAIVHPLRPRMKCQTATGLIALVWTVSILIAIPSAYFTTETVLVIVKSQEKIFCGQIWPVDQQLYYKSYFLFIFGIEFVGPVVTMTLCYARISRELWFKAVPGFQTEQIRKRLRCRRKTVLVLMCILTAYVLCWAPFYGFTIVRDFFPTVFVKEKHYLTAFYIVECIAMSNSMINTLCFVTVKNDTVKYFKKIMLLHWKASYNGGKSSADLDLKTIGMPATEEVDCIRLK

Row | IC50 [nM] | Compound
1 | 2390 | CCn1cc(C(=O)N2CCCC(F)(c3ncc(Cl)cc3C)C2)cn1 (stereo not shown) [Example 41, 5-Chloro-2-[1-(1-ethyl-1H-pyrazole-4-carbonyl)-3-fluoropiperidin-3-yl]-3-methylpyridine]
2 | > 9000 | COC1(c2ncc(Cl)cc2C)CCCN(C(=O)c2cn(C)nc2N)C1 (stereo not shown) [Example 42, 4-[3-(5-Chloro-3-methylpyridin-2-yl)-3-methoxypiperidine-1-carbonyl]-1-methyl-1H-pyrazol-3-amine]
3 | > 5000 | Cc1cc(Cl)cnc1C1(F)CCCN(C(=O)c2cn(C)nc2N)C1 (stereo not shown) [Example 43, 4-[3-(5-Chloro-3-methylpyridin-2-yl)-3-fluoropiperidine-1-carbonyl]-1-methyl-1H-pyrazol-3-amine]

The remaining lines, values behind:

Row | Compound | IC50 [nM]
4 | COC1(c2ncc(Cl)cc2C)CCCN(C(=O)c2cnnc(N(C)C)c2)C1 (stereo not shown) [Example 37, 5-[3-(5-Chloro-3-methylpyridin-2-yl)-3-methoxypiperidine-1-carbonyl]-N,N-dimethylpyridazin-3-amine] | 920
5 | CNc1cc(C(=O)N2CCCC(F)(c3ncc(Cl)cc3C)C2)cnn1 (stereo not shown) [Example 38, 5-[3-(5-Chloro-3-methylpyridin-2-yl)-3-fluoropiperidine-1-carbonyl]-N-methylpyridazin-3-amine] | 1250
6 | Cc1cc(Cl)cnc1C1(F)CCCN(C(=O)c2cnnc(N(C)C)c2)C1 (stereo not shown) [Example 39, 5-[3-(5-Chloro-3-methylpyridin-2-yl)-3-fluoropiperidine-1-carbonyl]-N,N-dimethylpyridazin-3-amine] | 400
7 | CCn1cc(C(=O)N2CCCC(OC)(c3ncc(Cl)cc3C)C2)cn1 (stereo not shown) [Example 40, 5-Chloro-2-[1-(1-ethyl-1H-pyrazole-4-carbonyl)-3-methoxypiperidin-3-yl]-3-methylpyridine] | 3410

From patent publication US10562882B2, “Piperidine derivatives for use in the treatment or prevention of psychiatric and neurological conditions” (Takeda Pharmaceutical Company Limited, priority 2013, dated 2020)
